Laboratory results from patent US9174951B2, “Glucose transporter inhibitors” (The Ohio State University Research Foundation, priority 2012, dated 2015).

Assays:
LNCaP cells [1] = test: MTT cell viability assay, LNCaP; assay type: cell-based, human; conditions: Homo sapiens, LNCaP, 72 h, MTT, 10% FBS
Protocol: Cell Viability Assay. Cell viability was determined using the 3-(4,5-dimethylthiazol-2-yl)-2,5-diphenyltetrazolium bromide (MTT) assay. Cancer cells were seeded at 5000 cells/well and normal cells were seeded at 8000 cells/well in 96-well plates and incubated in 10% FBS-supplemented medium for 24 h. Cells were then treated with individual agents for 72 h. Drug-containing medium was replaced with medium containing MTT (0.5 mg/mL), followed by incubation at 37° C. for 1 h. After removal of medium, the reduced MTT dye in each well was solubilized in 100 μL of DMSO and absorbance at 570 nm was measured.
Compound 30 was evaluated for antiproliferative activity in panels of different human cancer cells lines, including those of prostate, breast and pancreatic cancers. In all experiments, cells were treated with a range of concentrations of Compound 30 in the presence of 10% fetal bovine serum (FBS). Cell viability was then determined after 72 h of treatment using the 3-(4,5-dimethylthiazol-2-yl)-2,5-diphenyltetrazolium bromide (MTT) assay. […] It is noteworthy that despite this high antiproliferative potency, normal human prostate epithelial cells (PrECs) were resistant to the cytotoxic effect of Compound 30 even at 10 μM.

LNCaP cells [2] = test: [3H]2-DG glucose uptake assay in LNCaP cells; assay type: cell-based, human; conditions: for IC50: Homo sapiens, LNCaP, Krebs-Ringer phosphate buffer, 37° C., 30 min of drug treatment, read-out: IC50 in blocking [3H]2-DG uptake into LNCaP cells; for inhibition of [3H]2-DG uptake into LNCaP cells (screening, in words): each at 5 μM, 30 min of exposure
Protocol: Screening of the focused compound library to identify lead glucose uptake inhibitors.
Glucose Uptake Assay. LNCaP cells were seeded in six-well plates (3×10^5 cells/well) for 24 h. […] The cells were lysed in […] lysis buffer (10 mM Tris-HCl pH 8.0, 0.1% SDS) and aliquots were taken for measurement of radioactivity using a scintillation counter (Beckman LS6500).

Q: For `CC1(COc2ccc(/C=C3\SC(=O)NC3=O)cc2)CCCCC1` [Compound 2, (Z)-5-(4-[(1-methylcyclohexyl)methoxy]benzylidene)-thiazolidine-2,4-dione, reference compound], which IC50 (LNCaP cells [1]) is on record?
A: The IC50 was 28 µM.

Q: What about the IC50 (LNCaP cells [2]) of the same compound?
A: Its IC50 is 52 µM.

Q: What does the source list for `CC1(CN2C(=O)S/C(=C\c3ccc(O)c(C(F)(F)F)c3)C2=O)CCCCC1` [Compound 4, (Z)-5-(4-hydroxy-3-(trifluoromethyl)benzylidene)-3-((1-methylcyclohexyl)methyl)thiazolidine-2,4-dione, reference compound]?
A: IC50 (LNCaP cells [1]): 6 µM; IC50 (LNCaP cells [2]): 9 µM

Q: What does the source list for `O=C1SC(=Cc2ccc(O)c(C(F)(F)F)c2)C(=O)N1CC(CC(F)(F)F)CC(F)(F)F` [Compound 28, 5-(4-Hydroxy-3-trifluoromethyl-benzylidene)-3-[4,4,4-trifluoro-2-(2,2,2-trifluoro-ethyl)-butyl]-thiazolidine-2,4-dione]?
A: IC50 (LNCaP cells [1]): 2.2 µM; IC50 (LNCaP cells [2]): 3.5 µM; inhibition of [3H]2-DG uptake into LNCaP cells (screening, in words) (LNCaP cells [2]): substantially improved potency relative to compound 5

Q: For `O=C1SC(=Cc2ccc(O)c(C(F)(F)F)c2)C(=O)N1CC(F)(CC(F)(F)F)CC(F)(F)F` [Compound 29, 5-(4-Hydroxy-3-trifluoromethyl-benzylidene)-3-[2,4,4,4-tetrafluoro-2-(2,2,2-trifluoro-ethyl)-butyl]-thiazolidine-2,4-dione], which “inhibition of [3H]2-DG uptake into LNCaP cells (screening, in words)” value (LNCaP cells [2]) is on record?
A: The value was “substantially improved potency relative to compound 5”.

Q: `CC1(COc2ccc(CC3SC(=O)NC3=O)cc2)CCCCC1` (stereo not shown) [Compound 1, ciglitazone, reference compound] was tested. Which IC50 (LNCaP cells [1]) did it give?
A: Its IC50 is 60 µM.

Q: What about the IC50 (LNCaP cells [2]) of the same compound?
A: Its IC50 is 78 µM.
